Test results taken from patent publication US20240343717A1, “MICROBIOCIDAL PYRAZOLE DERIVATIVES” (SYNGENTA CROP PROTECTION AG, priority 2021, published 2024).

How the values were obtained:
[1] = tested on: Blumeria graminis f. sp. tritici (Erysiphe graminis f. sp. tritici); test: Blumeria graminis f. sp. tritici / wheat / leaf disc preventative (powdery mildew on wheat); assay type: in vivo; settings: foliar, wheat leaf segments, inoculated 1 day after application
Experimental: Example B4: Blumeria graminis f. Sp. Tritici (Erysiphe graminis f. Sp. Tritici)/Wheat/Leaf Disc Preventative (Powdery Mildew on Wheat) Wheat leaf segments cv. Kanzler are placed on agar in a multiwell plate (24-well format) and sprayed with the formulated test compound diluted in water. The leaf disks are inoculated by shaking powdery mildew infected plants above the test plates 1 day after application. The inoculated leaf disks are incubated at 20° C. and 60% rh under a light regime of 24 h darkness followed by 12 h light/12 h darkness in a climate chamber and the activity of a compound is assessed as percent disease control compared to untreated when an appropriate level of disease damage appears on untreated check leaf segments (6-8 days after application).

[2] = tested on: Glomerella lagenarium (Colletotrichum lagenarium); test: Glomerella lagenarium (Colletotrichum lagenarium) / liquid culture (anthracnose); assay type: cell-based; settings: Colletotrichum orbiculare, growth inhibition photometrically 3-4 days after application, read-out: control of Glomerella lagenarium
Experimental: Example B3: Glomerella lagenarium (Colletotrichum lagenarium)/Liquid Culture (Anthracnose) Conidia of the fungus from cryogenic storage are directly mixed into nutrient broth (PDB potato dextrose broth). After placing a (DMSO) solution of test compound into a microtiter plate (96-well format), the nutrient broth containing the fungal spores is added. The test plates are incubated at 24° C. and the inhibition of growth is measured photometrically 3-4 days after application.

Alternaria solani = Alternaria solani / tomato / leaf disc (early blight); assay type: in vivo; settings: foliar, tomato leaf disks, sprayed 2 days before inoculation, compared to untreated control
Experimental: Example B1: Alternaria solani/Tomato/Leaf Disc (Early Blight) Tomato leaf disks cv. Baby are placed on agar in multiwell plates (24-well format) and sprayed with the formulated test compound diluted in water. The leaf disks are inoculated with a spore suspension of the fungus 2 days after application. The inoculated leaf disks are incubated at 23° C./21° C.

[3] = tested on: Phaeosphaeria nodorum (Septoria nodorum); test: Phaeosphaeria nodorum (Septoria nodorum) / wheat / leaf disc preventative (glume blotch); assay type: in vivo; settings: Parastagonospora nodorum, foliar, wheat leaf segments, inoculated 2 days after application
Experimental: Example B8: Phaeosphaeria nodorum (Septoria nodorum)/Wheat/Leaf Disc Preventative (Glume Blotch) Wheat leaf segments cv. Kanzler are placed on agar in a multiwell plate (24-well format) and sprayed with the formulated test compound diluted in water. The leaf disks are inoculated with a spore suspension of the fungus 2 days after application. The inoculated test leaf disks are incubated at 20° C. and 75% rh under a light regime of 12 h light/12 h darkness in a climate cabinet and the activity of a compound is assessed as percent disease control compared to untreated when an appropriate level of disease damage appears in untreated check leaf disks (5-7 days after application).

Pyrenophora teres = Pyrenophora teres / barley / leaf disc preventative (net blotch); assay type: in vivo; settings: foliar, barley leaf segments, inoculated 2 days after application
Experimental: Example B14: Pyrenophora teres/Barley/Leaf Disc Preventative (Net Blotch) Barley leaf segments cv. Hasso are placed on agar in a multiwell plate (24-well format) and sprayed with the formulated test compound diluted in water. The leaf segments are inoculated with a spore suspension of the fungus 2 days after application. The inoculated leaf segments are incubated at 20° C. and 65% rh under a light regime of 12 h light/12 h darkness in a climate cabinet and the activity of a compound is assessed as disease control compared to untreated when an appropriate level of disease damage appears in untreated check leaf segments (5-7 days after application).

[4] = tested on: Monographella nivalis (Microdochium nivale); test: Monographella nivalis (Microdochium nivale) / liquid culture (foot rot cereals); assay type: cell-based; settings: growth inhibition photometrically 4-5 days after application, read-out: control of Monographella nivalis
Outline: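 Fungal conidia mixed directly into potato dextrose broth and added to test compound delivered in DMSO. Incubated at 24° C; growth inhibition read photometrically 4-5 days after application.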

[5] = tested on: Mycosphaerella arachidis (Cercospora arachidicola); test: Mycosphaerella arachidis (Cercospora arachidicola) / liquid culture (early leaf spot); assay type: cell-based; settings: growth inhibition photometrically 4-5 days after application, read-out: control of Mycosphaerella arachidis
Experimental: Example B10: Mycosphaerella arachidis (Cercospora arachidicola)/Liquid Culture (Early Leaf Spot) Conidia of the fungus from cryogenic storage are directly mixed into nutrient broth (PDB potato dextrose broth). After placing a (DMSO) solution of test compound into a microtiter plate (96-well format), the nutrient broth containing the fungal spores is added. The test plates are incubated at 24° C. and the inhibition of growth is determined photometrically 4-5 days after application.

[6] = tested on: Mycosphaerella graminicola (Septoria tritici); test: Mycosphaerella graminicola (Septoria tritici) / liquid culture (Septoria blotch); assay type: cell-based; settings: Zymoseptoria tritici, growth inhibition photometrically 4-5 days after application, read-out: control of Mycosphaerella graminicola
Outline: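 Conidia suspended in potato dextrose broth and added to test compound supplied in DMSO in 96-well plates. Incubated at 24 °C, and growth inhibition read photometrically 4-5 days after application.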

[7] = tested on: Botryotinia fuckeliana (Botrytis cinerea); test: Botryotinia fuckeliana (Botrytis cinerea) / liquid culture (gray mould); assay type: cell-based; settings: growth inhibition photometrically 3-4 days after application, read-out: control of Botryotinia fuckeliana
Experimental: Example B2: Botryotinia fuckeliana (Botrytis cinerea)/Liquid Culture (Gray Mould) Conidia of the fungus from cryogenic storage are directly mixed into nutrient broth (Vogels broth). After placing a (DMSO) solution of test compound into a microtiter plate (96-well format), the nutrient broth containing the fungal spores is added. The test plates are incubated at 24° C. and the inhibition of growth is determined photometrically 3-4 days after application.

Fusarium culmorum = test: microbe, parasite or virus in culture; assay type: cell-based; settings: read-out: control of Fusarium culmorum

Cn1cc(C(C)(CNC(=O)c2cc(-c3ccc(F)cc3F)no2)c2cccc(Cl)n2)cn1 (stereo not drawn) [Compound P-4, N-[2-(6-chloro-2-pyridyl)-2-(1-methylpyrazol-4-yl)propyl]-3-(2,4-difluorophenyl)isoxazole-5-carboxamide]
≥ 80%: pest or weed control at 200 ppm [1] | inhibition of growth at 20 ppm [2] | pest or weed control at 200 ppm (Alternaria solani)

CN(C)C(=O)c1cccc(C(C)(CNC(=O)c2cc(-c3ccc(F)cc3F)on2)c2cnn(C)c2)n1 (stereo not drawn) [Compound P-44, 5-(2,4-difluorophenyl)-N-[2-[6-(dimethylcarbamoyl)-2-pyridyl]-2-(1-methylpyrazol-4-yl)propyl]isoxazole-3-carboxamide]
≥ 80%: pest or weed control at 200 ppm [3] | pest or weed control at 200 ppm (Alternaria solani) | pest or weed control at 200 ppm (Pyrenophora teres)

CO/N=C(/C)c1ccc(C(C)(CNC(=O)c2cc(-c3ccc(F)cc3F)on2)c2cnn(C)c2)nc1 (stereo not drawn) [Compound P-61, 5-(2,4-difluorophenyl)-N-[2-[5-[(Z)-N-methoxy-C-methyl-carbonimidoyl]-2-pyridyl]-2-(1-methylpyrazol-4-yl)propyl]isoxazole-3-carboxamide]
≥ 80%: pest or weed control at 200 ppm [3] | inhibition of growth at 20 ppm [2] | inhibition of growth at 20 ppm [4] | inhibition of growth at 20 ppm [5] | pest or weed control at 200 ppm (Alternaria solani) | inhibition of growth at 20 ppm [6] | pest or weed control at 200 ppm (Pyrenophora teres)

Cn1cc(C(C)(CNC(=O)c2cc(-c3ccc(F)cc3F)on2)c2cncc(Cl)n2)cn1 (stereo not drawn) [Compound P-21, N-[2-(6-chloropyrazin-2-yl)-2-(1-methylpyrazol-4-yl)propyl]-5-(2,4-difluorophenyl) isoxazole-3-carboxamide]
≥ 80%: pest or weed control at 200 ppm [1] | inhibition of growth at 20 ppm [6] | inhibition of growth at 20 ppm [7] | pest or weed control at 200 ppm (Pyrenophora teres)

CCCCc1nnc(C(=O)NCC(C)(c2cnn(C)c2)c2cccc(Cl)n2)s1 (stereo not drawn) [Compound P-108, 5-butyl-N-[2-(6-chloro-2-pyridyl)-2-(1-methylpyrazol-4-yl)propyl]-1,3,4-thiadiazole-2-carboxamide]
≥ 80%: inhibition of growth at 20 ppm (Fusarium culmorum) | inhibition of growth at 20 ppm [2] | inhibition of growth at 20 ppm [4] | inhibition of growth at 20 ppm [5] | inhibition of growth at 20 ppm [6] | inhibition of growth at 20 ppm [7]

CC(=O)c1cccc(C(C)(CNC(=O)c2cc(-c3ccc(F)cc3F)on2)c2cnn(C)c2)n1 (stereo not drawn) [Compound P-48, N-[2-(6-acetyl-2-pyridyl)-2-(1-methylpyrazol-4-yl)propyl]-5-(2,4-difluorophenyl) isoxazole-3-carboxamide]
≥ 80%: pest or weed control at 200 ppm [3] | inhibition of growth at 20 ppm [2] | inhibition of growth at 20 ppm [4] | inhibition of growth at 20 ppm [5] | pest or weed control at 200 ppm (Alternaria solani) | inhibition of growth at 20 ppm [6] | inhibition of growth at 20 ppm [7] | pest or weed control at 200 ppm (Pyrenophora teres)

Cn1cc(C(C)(CNC(=O)c2cc(-c3ccc(F)cc3F)on2)c2ccc(C#N)cn2)cn1 (stereo not drawn) [Compound P-75, N-[2-(5-cyano-2-pyridyl)-2-(1-methylpyrazol-4-yl)propyl]-5-(2,4-difluorophenyl) isoxazole-3-carboxamide]
≥ 80%: inhibition of growth at 20 ppm [4] | pest or weed control at 200 ppm (Alternaria solani) | inhibition of growth at 20 ppm [6] | pest or weed control at 200 ppm (Pyrenophora teres)

CC(C)C(CNC(=O)c1cc(-c2ccc(F)cc2F)on1)(c1cnn(C)c1)c1cccc(Cl)n1 (stereo not drawn) [Compound P-32, N-[2-(6-chloro-2-pyridyl)-3-methyl-2-(1-methylpyrazol-4-yl)butyl]-5-(2,4-difluorophenyl) isoxazole-3-carboxamide]
≥ 80%: pest or weed control at 200 ppm [3] | inhibition of growth at 20 ppm [4] | pest or weed control at 200 ppm (Alternaria solani) | inhibition of growth at 20 ppm [6] | inhibition of growth at 20 ppm [7] | pest or weed control at 200 ppm (Pyrenophora teres)

Cn1cc(C(C)(CNC(=O)c2cc(-c3ccc(F)cc3F)on2)c2ccnc(Cl)n2)cn1 (stereo not drawn) [Compound P-64, N-[2-(2-chloropyrimidin-4-yl)-2-(1-methylpyrazol-4-yl)propyl]-5-(2,4-difluorophenyl) isoxazole-3-carboxamide]
≥ 80%: pest or weed control at 200 ppm [3] | pest or weed control at 200 ppm [1] | inhibition of growth at 20 ppm [2] | inhibition of growth at 20 ppm [4] | pest or weed control at 200 ppm (Alternaria solani) | inhibition of growth at 20 ppm [6] | inhibition of growth at 20 ppm [7] | pest or weed control at 200 ppm (Pyrenophora teres)

Cn1cc(C(C)(CNC(=O)c2cc(-c3ccc(F)cc3F)on2)c2ccccn2)cn1 (stereo not drawn) [Compound P-11, 5-(2,4-difluorophenyl)-N-[2-(1-methylpyrazol-4-yl)-2-(2-pyridyl)propyl] isoxazole-3-carboxamide]
≥ 80%: pest or weed control at 200 ppm [3] | pest or weed control at 200 ppm [1] | inhibition of growth at 20 ppm [2] | inhibition of growth at 20 ppm [4] | pest or weed control at 200 ppm (Alternaria solani) | inhibition of growth at 20 ppm [6] | inhibition of growth at 20 ppm [7] | pest or weed control at 200 ppm (Pyrenophora teres)

Cn1cc(C(C)(CNC(=O)c2nnc(-c3ccc(F)cc3F)s2)c2ccccn2)cn1 (stereo not drawn) [Compound P-6, 5-(2,4-difluorophenyl)-N-[2-(1-methylpyrazol-4-yl)-2-(2-pyridyl)propyl]-1,3,4-thiadiazole-2-carboxamide]
≥ 80%: pest or weed control at 200 ppm [3] | pest or weed control at 200 ppm [1] | inhibition of growth at 20 ppm [2] | inhibition of growth at 20 ppm [4] | pest or weed control at 200 ppm (Alternaria solani) | inhibition of growth at 20 ppm [6] | inhibition of growth at 20 ppm [7] | pest or weed control at 200 ppm (Pyrenophora teres)

CC(=O)Nc1ccc(C(C)(CNC(=O)c2cc(-c3ccc(F)cc3F)on2)c2cnn(C)c2)nc1 (stereo not drawn) [Compound P-59, N-[2-(5-acetamido-2-pyridyl)-2-(1-methylpyrazol-4-yl)propyl]-5-(2,4-difluorophenyl) isoxazole-3-carboxamide]
≥ 80%: pest or weed control at 200 ppm [1]
